The source of these data is patent US20230312587A1, “PTERIDINONE COMPOUNDS AND USES THEREOF” (Vertex Pharmaceutical Incorporated, priority 2018, published 2023).

The structures appear in SMILES notation. Like-named read-outs stand apart in the source and are kept apart here.

The subject of this experiment is β-catenin-TCF-mediated reporter transcription activity in Colo 205 cells. The experiment is described as follows: Colo 205 reporter assay (TCF/LEF luciferase). Type of experiment: cell-based. Conditions: Colo 205 TCF/LEF luciferase reporter, read-out: TCF reporter Colo205 IC50. Summed up:
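Luciferase signal from a TCF/LEF-driven reporter, stably integrated in Colo 205 colon cancer cells, was measured 5 h after compound addition.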

Setting [1] is: Homo sapiens, COLO 205, 5 h, five hours after addition of compound.
Where [2] appears, read: five hours after addition of compound.
Setting [3] is: Homo sapiens, COLO 205, 5 h, R-isomer at C2 (corresponding to C2 S-isomer), 5 h.

Turning to `CO[C@H](C)[C@H]1C(=O)Nc2c(C)nc(N[C@H]3C[C@H](n4ccc(C(F)(F)F)n4)C3)nc2N1C` [Compound 731, (S)-7-((R)-1-methoxyethyl)-4,8-dimethyl-2-((trans-3-(3-(trifluoromethyl)-1H-pyrazol-1-yl)cyclobutyl)amino)-7,8-dihydropteridin-6(5H)-one], under setting [1], the 50% inhibitory concentration (IC50) was at least 5000 nM.
Consider `Cc1nc(N[C@H]2C[C@@H](Nc3ccc(F)cn3)C2)nc2c1NC(=O)[C@H](C(C)C)N2C` [Compound 732, (S)-2-((cis-3-((5-fluoropyridin-2-yl)amino)cyclobutyl)amino)-7-isopropyl-4,8-dimethyl-7,8-dihydropteridin-6(5H)-one], for which the concentration for half-maximal inhibition (IC50) under setting [1] lay in the range of 1000 to 5000 nM.
On the same count and under the same terms, with `COc1ccc(N[C@H]2C[C@@H](Nc3nc(C)c4c(n3)N(C)[C@@H](C(C)C)C(=O)N4)C2)nc1` [Compound 733, (S)-7-isopropyl-2-((cis-3-((5-methoxypyridin-2-yl)amino)cyclobutyl)amino)-4,8-dimethyl-7,8-dihydropteridin-6(5H)-one] the figure was at least 5000 nM; with `Cc1nc(N[C@H]2C[C@@H](Nc3ncc(C(F)(F)F)cn3)C2)nc2c1NC(=O)[C@H](C(C)C)N2C` [Compound 734, (S)-7-isopropyl-4,8-dimethyl-2-((cis-3-((5-(trifluoromethyl)pyrimidin-2-yl)amino)cyclobutyl)amino)-7,8-dihydropteridin-6(5H)-one], 300 to 1000 nM.
On to `Cc1nc(N[C@@H]2CC[C@H](Nc3cnc(C(F)(F)F)cn3)C2)nc2c1NC(=O)[C@H](C(C)C)N2C` [Compound 735, (S)-7-isopropyl-4,8-dimethyl-2-(((1R,3S)-3-((5-(trifluoromethyl)pyrazin-2-yl)amino)cyclopentyl)amino)-7,8-dihydropteridin-6(5H)-one], for which the concentration for half-maximal inhibition (IC50) under setting [1] was below 300 nM.
The same measure, in the same setting: with `CO[C@H](C)[C@H]1C(=O)Nc2c(C)nc(N[C@@H]3CC[C@H](Nc4cnc(C(F)(F)F)cn4)C3)nc2N1C` [Compound 736, (S)-7-((R)—1-methoxyethyl)-4,8-dimethyl-2-(((1R,3S)-3-((5-(trifluoromethyl)pyrazin-2-yl)amino)cyclopentyl)amino)-7,8-dihydropteridin-6(5H)-one] the figure was 300 to 1000 nM; with `Cc1nc(N[C@@H]2CC[C@H](Nc3cnc(C(F)(F)F)cn3)C2)nc2c1NC(=O)[C@H](C)N2C` [Compound 737, (S)-4,7,8-trimethyl-2-(((1R,3S)-3-((5-(trifluoromethyl)pyrazin-2-yl)amino)cyclopentyl)amino)-7,8-dihydropteridin-6(5H)-one], 1000 to 5000 nM; with `CC[C@H]1C(=O)Nc2c(C)nc(N[C@@H]3CC[C@H](Nc4cnc(C(F)(F)F)cn4)C3)nc2N1C` [Compound 738, (S)-7-ethyl-4,8-dimethyl-2-(((1R,3S)-3-((5-(trifluoromethyl)pyrazin-2-yl)amino)cyclopentyl)amino)-7,8-dihydropteridin-6(5H)-one], 300 to 1000 nM.
With `CC[C@H]1C(=O)Nc2c(C)nc(NC3CN(C(=O)c4cc(F)c(F)c(F)c4)C3)nc2N1C` [Compound 739, (S)-7-ethyl-4,8-dimethyl-2-((1-(3,4,5-trifluorobenzoyl)azetidin-3-yl)amino)-7,8-dihydropteridin-6(5H)-one], the IC50 under setting [1] was in the range of 300 to 1000 nM.
Still for that read-out and setting: with `Cc1nc(NC2CN(C(=O)c3cc(F)c(F)c(F)c3)C2)nc2c1NC(=O)[C@H](C)N2C` [Compound 740, (S)-4,7,8-trimethyl-2-((1-(3,4,5-trifluorobenzoyl)azetidin-3-yl)amino)-7,8-dihydropteridin-6(5H)-one] the figure was 300 to 1000 nM.
Take `Cc1nc(NCc2cnn(Cc3cc(F)c(F)c(F)c3)c2)nc2c1NC(=O)[C@H](COC(C)(C)C)N2C` [Compound 741, (S)-7-(tert-butoxymethyl)-4,8-dimethyl-2-(((1-(3,4,5-trifluorobenzyl)-1H-pyrazol-4-yl)methyl)amino)-7,8-dihydropteridin-6(5H)-one]: the 50% inhibitory concentration (IC50) under setting [1] was 300 to 1000 nM.
Turning to `Cc1nc(NCc2cnn(Cc3ccc(C(F)(F)F)nc3)c2)nc2c1NC(=O)[C@H]([C@H](C)OC(C)(C)C)N2C` [Compound 742, (S)-7-((S)-1-(tert-butoxy)ethyl)-4,8-dimethyl-2-(((1-((6-(trifluoromethyl)pyridin-3-yl)methyl)-1H-pyrazol-4-yl)methyl)amino)-7,8-dihydropteridin-6(5H)-one], the half-maximal inhibitory concentration (IC50) under setting [1] lay within 1000 to 5000 nM.
In the case of `Cc1nc(N[C@H]2C[C@@H](Cn3nccc3C(F)(F)F)C2)nc2c1NC(=O)[C@H](CO)N2C` [Compound 743, (S)-7-(hydroxymethyl)-4,8-dimethyl-2-(((1s,3R)-3-((5-(trifluoromethyl)-1H-pyrazol-1-yl)methyl)cyclobutyl)amino)-7,8-dihydropteridin-6(5H)-one], under setting [2], the IC50 fell in the range of 1000 to 5000 nM.
Turning to `Cc1nc(NCc2cnn(Cc3ccc(C(F)(F)F)nc3)c2)nc2c1NC(=O)[C@H]([C@@H](C)O)N2C` [Compound 744, (S)-7-((R)-1-hydroxyethyl)-4,8-dimethyl-2-(((1-((6-(trifluoromethyl)pyridin-3-yl)methyl)-1H-pyrazol-4-yl)methyl)amino)-7,8-dihydropteridin-6(5H)-one], the half-inhibitory concentration (IC50) under setting [1] lay within 300 to 1000 nM.
Regarding `Cc1nc(N[C@H]2C[C@H](Oc3cc(F)c(F)c(F)c3)C2)nc2c1NC(=O)[C@H]([C@H](C)OC(C)(C)C)N2C` [Compound 745, (S)-7-((S)-1-(tert-butoxy)ethyl)-4,8-dimethyl-2-(((1r,3S)-3-(3,4,5-trifluorophenoxy)cyclobutyl)amino)-7,8-dihydropteridin-6(5H)-one], the IC50 under setting [2] was 300 to 1000 nM.
Consider `COc1c(F)cc(Cn2cc(CNc3nc(C)c4c(n3)N(C)[C@@H]([C@H](C)OC(C)(C)C)C(=O)N4)cn2)cc1F` [Compound 746, (S)-7-((S)-1-(tert-butoxy)ethyl)-2-(((1-(3,5-difluoro-4-methoxybenzyl)-1H-pyrazol-4-yl)methyl)amino)-4,8-dimethyl-7,8-dihydropteridin-6(5H)-one], for which the 50% inhibitory concentration (IC50) under setting [1] lay within 300 to 1000 nM.
Take `C=C1C(=O)Nc2c(C)nc(NCc3cnn(Cc4ccc(C(F)(F)F)nc4)c3)nc2N1C` [Compound 749, 4,8-dimethyl-7-methylene-2-(((1-((6-(trifluoromethyl)pyridin-3-yl)methyl)-1H-pyrazol-4-yl)methyl)amino)-7,8-dihydropteridin-6(5H)-one]: the IC50 under setting [1] lay within 1000 to 5000 nM.
For the compound `CC[C@@]1(C)C(=O)N(C)c2cnc(NCc3cnn(Cc4ccc(F)cc4)c3)nc2N1C` [Compound I-226], the 50% inhibitory concentration (IC50) under setting [1] was below 300 nM.
On the same count and under the same terms, the result for `Cc1nc(N[C@H]2CCN(C(=O)c3cc(F)c(F)c(F)c3)C2)nc2c1NC(=O)[C@H](C(C)C)N2C` [Compound I-509] reads 300 to 1000 nM; that for `Cc1nc(N[C@@H]2CCN(C(=O)c3cc(F)c(F)c(F)c3)C2)nc2c1NC(=O)[C@H](C(C)C)N2C` [Compound I-541], 300 to 1000 nM.
As to `C[C@@H]1C(=O)N(C)c2cnc(NCc3cnn(Cc4ccc(F)cc4)c3)nc2N1C` [Compound I-809], under setting [3], the 50% inhibitory concentration (IC50) was 300 to 1000 nM.
Same read-out and setting: with `CCN1c2nc(NCc3cnn(Cc4ccc(F)cc4)c3)ncc2N(C)C(=O)[C@H]1C` [Compound I-860] the figure was below 300 nM; with `Cc1nc(NCc2cnn(Cc3ccc(F)cc3)c2)nc2c1N(C)C(=O)[C@@H](C)N2C` [Compound I-866], 300 to 1000 nM; with `C[C@@H]1C(=O)Nc2cnc(NCc3cnn(Cc4cc(F)c(F)c(F)c4)c3)nc2N1C` [Compound I-896], 300 to 1000 nM.
Consider `CCC[C@@H]1C(=O)N(C)c2cnc(NCc3cnn(Cc4ccc(F)cc4)c3)nc2N1C` [Compound I-984], for which the half-maximal inhibitory concentration (IC50) under setting [3] is 300 to 1000 nM.
Take `CCN1C(=O)[C@@H](C)N(CC)c2nc(NCc3cnn(Cc4ccc(F)cc4)c3)ncc21` [Compound I-985]: the IC50 under setting [3] is below 300 nM.
For the compound `CC[C@@H]1C(=O)N(CC)c2cnc(NCc3cnn(Cc4ccc(F)cc4)c3)nc2N1C` [Compound I-987], under setting [3], the IC50 was below 300 nM.
For `CCN1C(=O)[C@@H](C)N(C(C)C)c2nc(NCc3cnn(Cc4ccc(F)cc4)c3)ncc21` [Compound I-1144], under setting [3], the IC50 is 300 to 1000 nM.
Regarding `CC[C@@H]1C(=O)N(C)c2cnc(NCc3cnn(Cc4ccc(F)cc4)c3)nc2N1C(C)C` [Compound I-1146], the IC50 under setting [3] fell in the range of 300 to 1000 nM.
`COc1c(F)cc(Cn2cc(CNc3nc(C)c4c(n3)N(C)[C@H](C)C(=O)N4)cn2)cc1F` [Compound I-1205]: the half-maximal inhibitory concentration (IC50) under setting [3] was below 300 nM.
On to `Cc1nc(NCc2cnn(Cc3cc(F)c(F)c(F)c3)c2)nc2c1N(C)C(=O)[C@@H](C)N2C` [Compound I-1229], for which the IC50 under setting [3] is below 300 nM.
Regarding `CCC[C@@H]1C(=O)N(C)c2cnc(NCc3cnn(Cc4cc(F)c(F)c(F)c4)c3)nc2N1C` [Compound I-1348], the 50% inhibitory concentration (IC50) under setting [3] was below 300 nM.
Regarding `CCN1C(=O)[C@@H](C)N(CC)c2nc(NCc3cnn(Cc4cc(F)c(F)c(F)c4)c3)ncc21` [Compound I-1349], under setting [3], the IC50 was below 300 nM.
With `Cc1nc(NCc2cnn(Cc3ccc(C(F)(F)F)nc3)c2)nc2c1N(C)C(=O)[C@@H](C)N2C` [Compound I-1363], under setting [3], the IC50 was in the range of 300 to 1000 nM.
Same read-out and setting: with `CCN1C(=O)[C@@H](C)N(C(C)C)c2nc(NCc3cnn(Cc4cc(F)c(F)c(F)c4)c3)ncc21` [Compound I-1463] the figure was below 300 nM.
For `CC[C@@H]1C(=O)N(C)c2cnc(NCc3cnn(Cc4cc(F)c(F)c(F)c4)c3)nc2N1C(C)C` [Compound I-1465], the IC50 under setting [3] was below 300 nM.
As for `Cc1nc(NCc2cnn(Cc3cc(C(F)(F)F)nn3C)c2)nc2c1NC(=O)[C@@H](C1CC1)N2C` [Compound I-1498], the IC50 under setting [3] fell in the range of 300 to 1000 nM.
`CC[C@@H]1C(=O)Nc2cnc(NCc3cnn(Cc4ccc(F)cc4)c3)nc2N1C` [Compound I-1634]: under setting [3], the IC50 is at least 5000 nM.
For `CC[C@@H]1C(=O)Nc2c(C)nc(NCc3cnn(Cc4ccc(C(F)(F)F)nc4)c3)nc2N1C` [Compound I-1635], under setting [3], the IC50 was 1000 to 5000 nM.
With `Cc1nc(NCc2cnn(Cc3ccc(C(F)(F)F)nc3)c2)nc2c1NC(=O)[C@@H](C)N2C` [Compound I-1636], the half-maximal inhibitory concentration (IC50) under setting [3] was 1000 to 5000 nM.
With `Cc1nc(NCc2cnn(Cc3ccncc3C(F)(F)F)c2)nc2c1NC(=O)[C@@H](C)N2C` [Compound I-1637], the half-inhibitory concentration (IC50) under setting [3] was 1000 to 5000 nM.
